How the values were obtained:
[1] = test system: Human B Lymphocyte cell line, SU-DHL-8; test: Relative cell viability, SU-DHL-8 (CCK-8); format: cell-based; conditions: 48 hours, untreated (DMSO) = 100%
Protocol: Human-derived B lymphoma cell line SU-DHL-8 (Cat. #CRL-2961) purchased from ATCC was cultured in RPMI-1640 medium containing 10% FBS, 100 U/mL penicillin, and 100 μg/mL streptomycin.
The cell culture medium was then harvested, centrifuged at 1,300 rpm for 5 minutes, and the supernatant was removed. The cells were resuspended in the same medium and dispensed into a 96-well plate (Costar 96-well cell culture plate, Corning) at 90 μL per well, resulting in the conditions specified in Table 5.
Then, 10 μL of CCK-8 was added to each well, and the plates were incubated again at 37° C. in a 5% CO2 incubator for 4 hours.
In other words, when the survival rate of untreated cells (DMSO) is set at 100%, the relative cell survival rate in each group treated with the drug at different concentrations is indicated.

[2] = test system: T cells isolated from mouse spleens; test: T cell proliferation inhibition (CFSE flow cytometry, anti-CD3/anti-CD28 stimulation); format: cell-based, C57BL/6 mice; conditions: three days
Protocol: To verify the T cell proliferation inhibitory effect of the compounds according to the present invention, the following experiment was performed based on flow cytometry analysis using carboxyfluorescein diacetate succinimidyl ester (CFSE), a fluorescent dye that binds to intracellular molecules via covalent bonds.
Spleens were extracted from 7-week-old C57BL/6 mice, ground, and then separated into single cells using a strainer (40 μm pore size, SPL). Red blood cells were removed using ACK (Ammonium-Chloride-Potassium) lysis buffer to isolate white blood cells.
Finally, using a MACS Magnetic Stand and LS column, T cells were isolated from the spleen.
The T cells isolated from the spleen were resuspended in 1 mL of free medium (RPMI-1640+200 U/mL penicillin+200 μg/mL streptomycin), and 0.3 μL of CFSE (10 mM) was added. The mixture was incubated at 37° C. for 5 minutes.
Free medium (10 mL) was added to stop the reaction, and the cells were centrifuged to obtain the cell pellet.
RPMI 1640 medium containing 10% FBS, 100 U/mL penicillin, 100 μg/mL streptomycin, and resuspended the cells. The cells were then seeded into a 96-well plate at a density of 2× 10^5 cells per well and activated with CD3 and CD28 antibodies (0.5 μg/mL each) to activate T cells.
The compound diluted in DMSO was added at concentrations of 10 nM, 100 nM, 1 μM, 10 μM, 30 μM, and 50 μM, with three wells per concentration, and cultured at 37° C. and 5% CO2 for three days. The cells were then analyzed using a FACS Canto instrument.
The proliferation inhibition rate (%) was calculated using the following formula: […]

| Structure (SMILES) | Relative cell viability (%) ([1]; SU-DHL-8, 1 μM) | Relative cell viability (%) ([1]; SU-DHL-8, 10 μM) | Relative cell viability (%) ([1]; SU-DHL-8, 30 μM) | Proliferation inhibition rate (%) ([2]; concentration 100 nM) | Proliferation inhibition rate (%) ([2]; concentration 1 μM) | Proliferation inhibition rate (%) ([2]; concentration 10 μM) | Proliferation inhibition rate (%) ([2]; concentration 30 μM) | Proliferation inhibition rate (%) ([2]; concentration 50 μM) | Relative cell viability (%) ([1]; SU-DHL-8, 50 μM) | Proliferation inhibition rate (%) ([2]; concentration 10 nM) | Relative cell viability (%) ([1]; SU-DHL-8, 1 μM, listed as K-PB-48, 1 µM) | Relative cell viability (%) ([1]; SU-DHL-8, 10 μM, listed as K-PB-48, 10 µM) | Relative cell viability (%) ([1]; SU-DHL-8, 30 μM, listed as K-PB-48, 30 µM) | Relative cell viability (%) ([1]; SU-DHL-8, 50 μM, listed as K-PB-48, 50 µM) | Proliferation inhibition rate (%) ([2]; concentration 10 nM, listed as K-PB-48, 0.01 µM) | Relative cell viability (%) ([1]; SU-DHL-8, 1 μM, listed as PBK-2024-024, 1 µM) | Relative cell viability (%) ([1]; SU-DHL-8, 10 μM, listed as PBK-2024-024, 10 µM) | Relative cell viability (%) ([1]; SU-DHL-8, 30 μM, listed as PBK-2024-024, 30 µM) | Relative cell viability (%) ([1]; SU-DHL-8, 50 μM, listed as PBK-2024-024, 50 µM) | Proliferation inhibition rate (%) ([2]; concentration 10 nM, listed as PBK-2024-024, 0.01 µM) |
| --- | --- | --- | --- | --- | --- | --- | --- | --- | --- | --- | --- | --- | --- | --- | --- | --- | --- | --- | --- | --- |
| CC1CN(CCCCCCCCCCCCNC(=O)c2cccnc2N)CC(C)O1 (centres unmarked) [Compound 21, 2-Amino-N-(12-(2,6-dimethylmorpholino)dodecyl) nicotinamide] | 9.64 | 7.68 | 3.70 | 100.00 | 100.00 | 100.00 | 100.00 | 100.00 | – | – | – | – | – | – | – | – | – | – | – | – |
| CN1CCN(CCCCCCCCCCCCNC(=O)c2cccnc2F)CC1 [Compound 121, 2-fluoro-N-(12-(4-methylpiperazin-1-yl)dodecyl) nicotinamide] | 34.89 | 28.99 | 29.04 | 0.00 | 0.00 | 30.00 | 100.00 | 100.00 | 31.11 | 0.00 | – | – | – | – | – | – | – | – | – | – |
| CC1CN(C)C(CCCCCCCCCCCCNc2ccc3cncnc3n2)N1 (centres unmarked) [Compound 43] | 22.61 | 11.93 | 2.34 | 100.00 | 100.00 | 100.00 | 100.00 | 100.00 | 1.58 | – | – | – | – | – | – | – | – | – | – | – |
| Cl.O=C(NCCCCCCCCCCCCN1CCNCC1)c1ccc(-c2ccccc2)o1 [Compound 90, 5-Phenyl-N-(12-(piperazin-1-yl)dodecyl) furan-2-carboxamide hydrochloride] | 7.19 | 5.94 | 2.48 | – | – | 100.00 | 100.00 | 100.00 | 1.94 | – | – | – | – | – | – | – | – | – | – | – |
| Nc1ncccc1C(=O)NCCCCCCCCCCCCN1CC(F)(F)C1 [Compound 122, 2-Amino-N-(12-(3,3-difluoroazetidin-1-yl)dodecyl) nicotinamide] | 31.84 | 31.91 | 32.93 | 0.00 | 80.00 | 100.00 | 100.00 | 100.00 | 35.70 | 0.00 | – | – | – | – | – | – | – | – | – | – |
| COC1CCN(CCCCCCCCCCCCNC(=O)c2cccnc2N)C1 (centres unmarked) [Compound 126, 2-amino-N-(12-(3-methoxypyrrolidin-1-yl)dodecyl) nicotinamide] | – | – | – | 100.00 | 100.00 | 100.00 | 100.00 | 100.00 | – | – | 33.03 | 31.98 | 32.32 | 30.44 | 0.00 | – | – | – | – | – |
| COC1CCN(CCCCCCCCCCCCNC(=O)c2cccnc2N)C1 (centres unmarked) [Compound 32, 2-Amino-N-(12-(3-methoxypyrrolidin-1-yl)dodecyl) nicotinamide] | – | – | – | – | – | – | – | – | – | – | – | – | – | – | – | 3.48 | 3.01 | 1.97 | 1.45 | 0.29 |
| Nc1ncccc1C(=O)NCCCCCCCCCCCCN1CCN(CCO)CC1 [Compound 54, 2-Amino-N-(12-(4-(2-hydroxyethyl)piperazin-1-yl)dodecyl) nicotinamide] | 6.42 | 4.05 | 3.26 | 100.00 | 100.00 | 100.00 | 100.00 | 100.00 | 2.23 | – | – | – | – | – | – | – | – | – | – | – |
| C[C@H]1CNCCN1CCCCCCCCCCCCNC(=O)c1cccnc1N.Cl [Compound 37, (S)-2-Amino-N-(12-(2-methylpiperazin-1-yl)dodecyl) nicotinamide hydrochloride] | 6.38 | 4.45 | 3.17 | – | 100.00 | 100.00 | 100.00 | 100.00 | 2.32 | – | – | – | – | – | – | – | – | – | – | – |
| Cc1ccc(OC2CCN(CCCCCCCCCCCCNC(=O)c3cccnc3N)CC2)cc1 [Compound 51, 2-Amino-N-(12-(4-(p-tolyloxy)piperidin-1-yl)dodecyl) nicotinamide] | 3.48 | 1.98 | 0.89 | – | 100.00 | 100.00 | 100.00 | 100.00 | 0.48 | 0.77 | – | – | – | – | – | – | – | – | – | – |
| CC1CCN(CCCCCCCCCCCCNC(=O)c2cccnc2N)C1 (centres unmarked) [Compound 24, 2-Amino-N-(12-(3-methylpyrrolidin-1-yl)dodecyl) nicotinamide] | 8.38 | 1.65 | 0.62 | 100.00 | 100.00 | 100.00 | 100.00 | 100.00 | – | – | – | – | – | – | – | – | – | – | – | – |
| CN(CCCCCCCCCCCCNC(=O)c1cccnc1N)C1CCCCC1 [Compound 34, 2-Amino-N-(12-(cyclohexyl(methyl)amino)dodecyl) nicotinamide] | – | – | – | 100.00 | 100.00 | 100.00 | 100.00 | 100.00 | – | – | – | – | – | – | – | – | – | – | – | – |
| CN1CCN(CCCCCCCCCCCCNC(=O)c2ccccc2C(=O)NC2CCCCC2)CC1 [Compound 191, N1-Cyclohexyl-N2-(12-(4-methylpiperazin-1-yl)dodecyl) phthalamide] | – | – | – | 0.00 | 7.39 | 93.26 | 100.00 | 100.00 | – | 0.00 | – | – | – | – | – | – | – | – | – | – |
| CN1CCN(CCCCCCCCCCCCNC(=O)c2ccc(F)cn2)CC1 [Compound 203, 5-Fluoro-N-(12-(4-methylpiperazin-1-yl)dodecyl) picolinamide] | – | – | – | 1.16 | 6.80 | 100.00 | 100.00 | 100.00 | – | −4.49 | – | – | – | – | – | – | – | – | – | – |
